In one test the target is T1, human ACSS1 protein (Homo sapiens, UniProt Q9NUB1).
T1 construct: purchased MyBioSource
T1 sequence (Q9NUB1 38-689): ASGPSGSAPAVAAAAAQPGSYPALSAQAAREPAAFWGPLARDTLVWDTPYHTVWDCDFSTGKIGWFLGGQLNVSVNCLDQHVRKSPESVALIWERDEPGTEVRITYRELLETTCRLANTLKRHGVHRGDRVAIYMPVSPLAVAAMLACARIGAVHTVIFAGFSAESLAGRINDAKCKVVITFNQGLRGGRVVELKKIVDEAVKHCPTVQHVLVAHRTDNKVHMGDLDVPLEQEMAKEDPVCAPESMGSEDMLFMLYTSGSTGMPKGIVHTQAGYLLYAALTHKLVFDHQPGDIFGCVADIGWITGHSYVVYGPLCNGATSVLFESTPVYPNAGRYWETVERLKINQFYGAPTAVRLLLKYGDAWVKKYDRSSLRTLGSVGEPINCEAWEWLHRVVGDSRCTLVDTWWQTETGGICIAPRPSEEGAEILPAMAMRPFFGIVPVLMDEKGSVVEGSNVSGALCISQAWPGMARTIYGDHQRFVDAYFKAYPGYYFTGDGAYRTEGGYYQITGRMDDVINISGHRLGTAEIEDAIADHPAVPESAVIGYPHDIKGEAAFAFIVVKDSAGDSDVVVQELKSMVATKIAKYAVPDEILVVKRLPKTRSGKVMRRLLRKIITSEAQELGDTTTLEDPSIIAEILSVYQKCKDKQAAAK
The test is described as follows: ACSS1 cell-free activity assay (pyrophosphatase-coupled, Biomol green). It is filed as biochemical. The following applies: 5 nM human ACSS1, 30 minutes at room temperature, absorbance at 620 nm. The method, then:
ACSS1 Cell-Free Activity Assay (Cell-Free IC50)
The assay is based on a coupling reaction with Pyrophosphatase: ACSS1 is converting ATP+CoA+Acetate=>AMP+pyrophosphate+Acetyl-CoA (Ac-CoA). Pyrophosphatase converts pyrophosphate, a product of the ACSS1 reaction, to phosphate which can be detected by measuring the absorbance at 620 nm after incubation with the Biomol green reagent (Enzo life Science, BML-AK111).
(§1) Cell Free IC50 Determination:
5 nM of human ACSS1 protein (MyBioSource) was incubated for 30 minutes at room temperature with various compounds' concentrations in a reaction containing 50 mM Hepes pH 7.5, 10 mM DTT, 90 mM KCl, 0.006% Tween-20, 0.1 mg/ml BSA, 2 mM MgCl2, 15 μM CoA, 5 mM NaAc, 300 μM ATP and 0.5 U/ml Pyrophosphatase (Sigma). At the end of the reaction, Biomol Green was added for 30 minutes at RT and the activity was measured by reading the absorbance at 620 nm. IC50 values were calculated using non-linear regression curve fit with 0% and 100% constrains (CDD Vault, Collaborative Drug Discovery, Inc.).

The target of a further test is T2, human ACSS2 protein (Homo sapiens, UniProt Q9NR19).
T2 construct: purchased OriGene Technologies, Inc
The test is described as follows: ACSS2 cell-free activity assay (pyrophosphatase-coupled, Biomol green). As to conditions: 10 nM human ACSS2, 90 minutes at 37 C, absorbance at 620 nm; read-out: ACSS2 Biochemical IC50; call rule not given here. On the procedure: ACSS2 Cell-Free Activity Assay (Cell-Free IC50)
The assay is based on a coupling reaction with Pyrophosphatase: ACSS2 is converting ATP+CoA+Acetate=>AMP+pyrophosphate+Acetyl-CoA (Ac-CoA). Pyrophosphatase converts pyrophosphate, a product of the ACSS2 reaction, to phosphate which can be detected by measuring the absorbance at 620 nm after incubation with the Biomol green reagent (Enzo life Science, BML-AK111).
as §1
10 nM of human ACSS2 protein (OriGene Technologies, Inc) was incubated for 90 minutes at 37 C with various compounds' concentrations in a reaction containing 50 mM Hepes pH 7.5, 10 mM DTT, 90 mM KCl, 0.006% Tween-20, 0.1 mg/ml BSA, 2 mM MgCl2, 10 μM CoA, 5 mM NaAc, 300 μM ATP and 0.5 U/ml Pyrophosphatase (Sigma). At the end of the reaction, Biomol Green was added for 30 minutes at RT and the activity was measured by reading the absorbance at 620 nm. IC50 values were calculated using non-linear regression curve fit with 0% and 100% constrains (CDD Vault, Collaborative Drug Discovery, Inc.).

SMILES strings stand for the structures.

T2 sequence (Q9NR19 whole entry): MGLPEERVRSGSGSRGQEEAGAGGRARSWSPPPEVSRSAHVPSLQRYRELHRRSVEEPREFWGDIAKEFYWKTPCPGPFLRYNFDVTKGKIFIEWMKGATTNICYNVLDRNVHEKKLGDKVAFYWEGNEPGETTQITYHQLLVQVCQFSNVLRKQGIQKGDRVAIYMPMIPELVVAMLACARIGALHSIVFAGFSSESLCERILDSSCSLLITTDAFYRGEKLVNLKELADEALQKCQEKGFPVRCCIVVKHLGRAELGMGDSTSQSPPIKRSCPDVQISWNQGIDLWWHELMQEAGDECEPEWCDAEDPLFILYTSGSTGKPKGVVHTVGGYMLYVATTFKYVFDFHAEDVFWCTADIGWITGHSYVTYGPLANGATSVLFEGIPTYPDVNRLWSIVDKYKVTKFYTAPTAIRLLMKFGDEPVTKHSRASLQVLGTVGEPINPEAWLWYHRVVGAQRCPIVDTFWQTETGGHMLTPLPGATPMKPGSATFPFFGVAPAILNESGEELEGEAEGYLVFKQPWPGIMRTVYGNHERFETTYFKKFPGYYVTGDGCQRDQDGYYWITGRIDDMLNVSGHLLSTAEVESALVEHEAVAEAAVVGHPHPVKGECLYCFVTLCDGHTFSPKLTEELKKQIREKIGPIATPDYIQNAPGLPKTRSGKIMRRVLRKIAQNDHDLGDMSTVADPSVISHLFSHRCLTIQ

As usually defined, the IC50 is the concentration that inhibits the measured activity by half. With `CC#Cc1cc(C)c(-c2cc(-c3[nH]c(C)c(C(=O)Nc4cccc(C(F)(F)CC)c4)[n+]3[O-])ccc2OC)c(C)c1` [Compound 156, 4-((3-(1,1-difluoropropyl)phenyl)carbamoyl)-2-(6-methoxy-2′,6′-dimethyl-4′-(prop-1-yn-1-yl)-[1,1′-biphenyl]-3-yl)-5-methyl-1H-imidazole 3-oxide], the “ACSS1 Biochemical IC50 (nM)” value on human ACSS1 protein was “Inactive”. Besides, the 50% inhibitory concentration (IC50) at human ACSS2 protein fell in the range of 1 to 30 nM.

As to `Cc1cccc(C)c1-c1cc(Br)cc(-c2[nH]c(C)c(C(=O)Nc3cccc(C(F)(F)C4CC4)c3)[n+]2[O-])c1` [Compound 136, 2-[3-bromo-5-(2,6-dimethylphenyl)phenyl]-N-[3-[cyclopropyl(difluoro)methyl]phenyl]-5-methyl-3-oxido-1H-imidazol-3-ium-4-carboxamide], the “ACSS1 Biochemical IC50 (nM)” value on human ACSS1 protein is recorded as “Inactive”. Moreover, the half-maximal inhibitory concentration (IC50) on human ACSS2 protein was in the range of 1 to 30 nM.

On to `CCC(F)(F)c1cccc(NC(=O)c2c(C)[nH]c(-c3ccc(OC)c(N4CCOCC4)c3)[n+]2[O-])c1` [Compound 150, 4-((3-(1,1-difluoropropyl)phenyl)carbamoyl)-2-(4-methoxy-3-morpholinophenyl)-5-methyl-1H-imidazole 3-oxide], for which the “ACSS1 Biochemical IC50 (nM)” value at human ACSS1 protein is listed as “Inactive”. Besides, the 50% inhibitory concentration (IC50) at human ACSS2 protein lay within 1 to 30 nM.

On to `COc1ccc(-c2[nH]c(C)c(C(=O)Nc3cccc(C(F)(F)C4(C)CC4)c3)[n+]2[O-])cc1-c1c(C)cccc1C` [Compound 151, 4-((3-(difluoro(1-methylcyclopropyl)methyl)phenyl)carbamoyl)-2-(6-methoxy-2′,6′-dimethyl-[1,1′-biphenyl]-3-yl)-5-methyl-1H-imidazole 3-oxide], for which, at human ACSS1 protein, the “ACSS1 Biochemical IC50 (nM)” value is reported as “Inactive”. The concentration for half-maximal inhibition (IC50) at human ACSS2 protein was over 30 nM.

Regarding `COc1ccc(-c2[nH]c(C)c(C(=O)Nc3cccc(C(=O)N4CCNCC4)c3)[n+]2[O-])cc1-c1c(C)cccc1C` [Compound 153, 2-(6-methoxy-2′,6′-dimethyl-[1,1′-biphenyl]-3-yl)-5-methyl-4-((3-(piperazine-1-carbonyl)phenyl)carbamoyl)-1H-imidazole 3-oxide], on human ACSS1 protein, the “ACSS1 Biochemical IC50 (nM)” value is listed as “Inactive”. The IC50 on human ACSS2 protein was over 30 nM.

Turning to `COc1ccc(-c2[nH]c(C)c(C(=O)Nc3cccc(C(=O)N4CCC4)c3)[n+]2[O-])cc1-c1c(C)cccc1C` [Compound 170, 4-((3-(azetidine-1-carbonyl)phenyl)carbamoyl)-2-(6-methoxy-2′,6′-dimethyl-[1,1′-biphenyl]-3-yl)-5-methyl-1H-imidazole 3-oxide], the “ACSS1 Biochemical IC50 (nM)” value at human ACSS1 protein is on record as “Inactive”. In addition, the IC50 on human ACSS2 protein is under 1 nM.

As for `CCC(F)(F)c1cccc(NC(=O)c2c(C)[nH]c(-c3ccc(OC)c(-c4cnccn4)c3C)[n+]2[O-])c1` [Compound 127, 4-((3-(1,1-difluoropropyl)phenyl)carbamoyl)-2-(4-methoxy-2-methyl-3-(pyrazin-2-yl)phenyl)-5-methyl-1H-imidazole 3-oxide], the “ACSS1 Biochemical IC50 (nM)” value at human ACSS1 protein was “Inactive”. Also, the 50% inhibitory concentration (IC50) at human ACSS2 protein was over 30 nM.

Take `CCC(F)(F)c1cccc(NC(=O)c2c(C)[nH]c(-c3ccc(OC)c(C4CCN(C)CC4)c3)[n+]2[O-])c1` [Compound 166, N-[3-(1,1-difluoropropyl)phenyl]-2-[4-methoxy-3-(1-methyl-4-piperidyl)phenyl]-5-methyl-3-oxido-1H-imidazol-3-ium-4-carboxamide]: the “ACSS1 Biochemical IC50 (nM)” value on human ACSS1 protein is “Inactive”. Also, the concentration for half-maximal inhibition (IC50) on human ACSS2 protein was over 30 nM.

Consider `COc1cc(F)c(-c2[nH]c(C)c(C(=O)Nc3cccc(C(F)(F)F)c3)[n+]2[O-])nc1-c1c(C)cc(F)cc1C` [Compound 209, 2-(3-fluoro-6-(4-fluoro-2,6-dimethylphenyl)-5-methoxypyridin-2-yl)-5-methyl-4-((3-(trifluoromethyl)phenyl)carbamoyl)-1H-imidazole 3-oxide], for which, on human ACSS1 protein, the “ACSS1 Biochemical IC50 (nM)” value is given as “Inactive”. Also, the IC50 at human ACSS2 protein fell in the range of 1 to 30 nM.

The values above are taken from US20230174507A1, “IMIDAZOLE 3-OXIDE DERIVATIVE BASED ACSS2 INHIBITORS AND METHODS OF USE THEREOF” (METABOMED LTD., priority 2020, published 2023).
